Reference: patent US11072741B2, “Optically anisotropic layer, method for producing the optically anisotropic layer, a laminate, polarizing plate, display device, liquid crystal compound, method for producing the liquid crystal compound, and carboxylic acid compound” (FUJIFILM Corporation, priority 2014, dated 2021)

Columns and labels:
[1] = Evaluation of phase transition temperature by polarizing microscope; format: physicochemical; conditions: for TNi(° C.) Isotropic Phase Transition Point / Tsm—N(° C.) Sm—N Transition Point: during temperature increase; for Phase Transition Temperature Evaluation of Decrease: versus comparative compound with the same Ar and side chain portion of Formula (Ia)
From the text: Here, the temperature at which the compound transitions from the smectic phase to the nematic phase may be easily measured by observation of the composition employing polarized light microscopy. For example, in the nematic phase, a schlieren texture specific to the nematic phase is observed, while the texture transitions to a focal conic fan texture in a smectic A phase. Therefore, the phase transition temperature can be measured by observing the textures with a polarizing microscope while increasing or decreasing the temperature.
The phase transition temperatures of the synthesized liquid crystal compounds of the Examples and Comparative Examples were observed using a polarizing microscope to evaluate the degrees of temperature decrease. Specifically, the compounds of the Examples were compared to the compounds of the Comparative Examples, which have different structures for the side chain portions thereof. That is, the phase transition temperature of a compound of a Comparative Example having Ar (the aromatic ring at the center of General Formula 1) in common with the Examples and a side chain portion represented by Formula (Ia) below was used as a reference. Evaluations of A through C were assigned according to the degree of temperature decrease from the reference phase transition temperature.
(§1) For example, compound (I-1) and (I-2) were compared to Comparative Compound (Ia-1), and Compound (III-3) was compared to Comparative Compound (IIIa-3). The evaluation was carried out based on the following criteria.
A: decrease in melting point or Sm-N (smectic-nematic) transition temperature is 20° C. or greater
B: decrease in melting point or Sm-N (smectic-nematic) transition temperature is 5° C. or greater and less than 20° C.
C: decrease in melting point or Sm-N (smectic-nematic) transition temperature is less than 5° C.
With respect to the phase transition temperature, the numerical value in parentheses represents the numerical value during temperature decrease, and other numerical values represent a numerical value during temperature increase.

[2] = Measurement and evaluation of solubility in MEK and CPN; format: physicochemical; design: key to Solubility Evaluation: A: solubility improved twofold or greater in plural solvents or a single solvent; B: solubility was the same or improved up to twofold in plural solvents or a single solvent; C: no improvement in solubility in plural solvents or a single solvent; conditions: for Solubility CPN wt %: cyclopentanone; for Solubility CPN wt % / Solubility MEK wt %: room temperature, visual observation, 5 wt % increments; for Solubility MEK wt %: methyl ethyl ketone; for Solubility Evaluation: versus comparative compound with the same Ar and side chain portion of Formula (Ia)
Procedure: Solubility measurements of the synthesized liquid crystal compounds were conducted by the following method. 50 mg of each compound was weighted into a 1.5 mL sample bottle, and solvent was added until the solid component became 40 wt % (75 mg). The solubility was determined to be 40 wt % if clear under visual observation after shaking well manually at room temperature. If undissolved residue was present, solvent was added such that the solid component became 35 wt % (+18 mg). The solubility was determined to be 35 wt % if clear under visual observation after shaking well manually at room temperature. If undissolved residue was present, solvent was added such that the solid component became 30 wt %. Similar operations were performed in increments of 5 wt %, and repeated until the solid component became 5 wt %. If undissolved residue was present, the solubility was determined to be less than 5 wt % (<5 wt %), and measurements were completed. MEK (methyl ethyl ketone) and CPN (cyclopentanone) were utilized as solvents for measuring solubility.
The measured values of solubility were evaluated. The evaluations were conducted by using solubility of a compound of a Comparative Example having Ar (the aromatic ring at the center of General Formula 1) in common with the Examples and a side chain portion represented by Formula (Ia) as a reference, in a manner similar to that in the evaluation of the phase transition temperature. Evaluations of A through C were assigned according to the degree of improvement in solubility from the reference solubility.
as §1
A: solubility improved twofold or greater in plural solvents or a single solvent
B: solubility was the same or improved up to twofold in plural solvents or a single solvent
C: no improvement in solubility in plural solvents or a single solvent

Row | SMILES | TNi(° C.) Isotropic Phase Transition Point [1] | Solubility CPN wt % [2] | Solubility MEK wt % [2] | melting point | Tsm—N(° C.) Sm—N Transition Point [1] | Phase Transition Temperature Evaluation of Decrease [1] | Solubility Evaluation [2]
1 | C=CC(=O)OCCCCCCOc1ccc(OC(=O)[C@H]2CC[C@H](C(=O)Oc3ccc(OC(=O)[C@H]4CC[C@H](C(=O)Oc5ccc(OCCCCCCOC(=O)C=C)cc5)CC4)c4c3SC(=C(C#N)C(=O)OC)S4)CC2)cc1 [IIIa-3] | 240 °C | 10 wt % | <5 wt % | 131 °C |  |  | 
2 | C=CC(=O)OCCCCCCOc1ccc(OC(=O)[C@H]2CC[C@H](C(=O)Oc3ccc(OC(=O)[C@H]4CC[C@H](C(=O)Oc5ccc(OCCCCCCOC(=O)C=C)cc5)CC4)c4c3SC(=C(C#N)C(=O)OCCC(C)(C)O)S4)CC2)cc1 [IIIa-7] | 157 °C | 40 wt % | 20 wt % | 106 °C |  |  | 
3 | C=CC(=O)OCCCCCCOc1ccc(OC(=O)[C@H]2CC[C@H](C(=O)Oc3cc(C)c(OC(=O)[C@H]4CC[C@H](C(=O)Oc5ccc(OCCCCCCOC(=O)C=C)cc5)CC4)c4c3SC(=C(C#N)C#N)S4)CC2)cc1 [IVa-1] | >250 ^ ° C. | 10 wt % | <5 wt % | 189 °C |  |  | 
4 | C=CC(=O)OCCCCCCOc1ccc(OC(=O)[C@H]2CC[C@H](C(=O)Oc3ccc(OC(=O)[C@H]4CC[C@H](C(=O)Oc5ccc(OCCCCCCOC(=O)C=C)cc5)CC4)c4c3SC(=C(C#N)C#N)S4)CC2)cc1 [Ia-1] | >210 ^ ° C. | 10 wt % | <5 wt % | 148 °C | 183 °C |  | 
5 | C=CC(=O)OCCCCOC(=O)[C@H]1CC[C@H](C(=O)O[C@H]2CC[C@H](C(=O)Oc3ccc(OC(=O)[C@H]4CC[C@H](OC(=O)[C@H]5CC[C@H](C(=O)OCCCCOC(=O)C=C)CC5)CC4)c4c3SC(=C(C#N)C#N)S4)CC2)CC1 [Ib-1] | 206 °C | 10 wt % | <5 wt % | 170 °C |  | C (decrease in melting point or Sm-N (smectic-nematic) transition temperature is less than 5° C.) | C
6 | C=CC(=O)OCCCCOc1ccc(C(=O)Oc2ccc(C(=O)Oc3ccc(OC(=O)c4ccc(OC(=O)c5ccc(OCCCCOC(=O)C=C)cc5)cc4)c4c3SC(=C(C#N)C#N)S4)cc2)cc1 [Ic-1] | >210^ ° C. | <10 wt % | <5 wt % | 185 °C |  | C (decrease in melting point or Sm-N (smectic-nematic) transition temperature is less than 5° C.) | C

Further lines, with some results ahead:

Row | TNi(° C.) Isotropic Phase Transition Point [1] | Solubility CPN wt % [2] | Solubility MEK wt % [2] | melting point | Tsm—N(° C.) Sm—N Transition Point [1] | SMILES | Phase Transition Temperature Evaluation of Decrease [1] | Solubility Evaluation [2]
7 | 190 °C | 25 wt % | 10 wt % | 127 °C |  | N#CC(C#N)=C1Sc2c(OC(=O)[C@H]3CC[C@H](C(=O)Oc4ccc(CCOC(=O)CCCCCCCCC5CO5)cc4)CC3)ccc(OC(=O)[C@H]3CC[C@H](C(=O)Oc4ccc(CCOC(=O)CCCCCCCCC5CO5)cc4)CC3)c2S1 (stereo partly drawn) [Compound I-15] | A (decrease in melting point or Sm-N (smectic-nematic) transition temperature is 20 °C or greater) | A (solubility improved twofold or greater in plural solvents or a single solvent)
8 | 176 °C | 20 wt % | 10 wt % | 102 °C | 138 °C | C=CC(=O)OCCCCOC(=O)Cc1ccc(OC(=O)[C@H]2CC[C@H](C(=O)Oc3ccc(OC(=O)[C@H]4CC[C@H](C(=O)Oc5ccc(CC(=O)OCCCCOC(=O)C=C)cc5)CC4)c4c3SC(=C(C#N)C#N)S4)CC2)cc1 [II-8] | A (decrease in melting point or Sm-N (smectic-nematic) transition temperature is 20 °C or greater) | A (solubility improved twofold or greater in plural solvents or a single solvent)
9 | 210 °C | 15 wt % | 5 wt % | 116 °C | 122 °C | C=CC(=O)OCCOC(=O)Cc1ccc(OC(=O)[C@H]2CC[C@H](C(=O)Oc3ccc(OC(=O)[C@H]4CC[C@H](C(=O)Oc5ccc(CC(=O)OCCOC(=O)C=C)cc5)CC4)c4c3SC(=C(C#N)C#N)S4)CC2)cc1 [II-9] | A (decrease in melting point or Sm-N (smectic-nematic) transition temperature is 20 °C or greater) | B (solubility was the same or improved up to twofold in plural solvents or a single solvent)
10 | 118 °C | 20 wt % | 10 wt % | 100 °C |  | C=CC(=O)OCCOC(=O)CCC(=O)OCCc1ccc(OC(=O)[C@H]2CC[C@H](C(=O)Oc3ccc(OC(=O)[C@H]4CC[C@H](C(=O)Oc5ccc(CCOC(=O)CCC(=O)OCCOC(=O)C=C)cc5)CC4)c4c3SC(=C(C#N)C(=O)OC)S4)CC2)cc1 [III-3] | A (decrease in melting point or Sm-N (smectic-nematic) transition temperature is 20 °C or greater) | A (solubility improved twofold or greater in plural solvents or a single solvent)
11 | 172 °C | 35 wt % | 15 wt % | 148 °C |  | C=CC(=O)OCCOC(=O)CCC(=O)OCCc1ccc(OC(=O)[C@H]2CC[C@H](C(=O)Oc3cc(C)c(OC(=O)[C@H]4CC[C@H](C(=O)Oc5ccc(CCOC(=O)CCC(=O)OCCOC(=O)C=C)cc5)CC4)c4c3SC(=C(C#N)C#N)S4)CC2)cc1 [IV-1] | A (decrease in melting point or Sm-N (smectic-nematic) transition temperature is 20 °C or greater) | A (solubility improved twofold or greater in plural solvents or a single solvent)
12 | 99 °C | 40 wt % | 40 wt % | 95 °C |  | C=CC(=O)OCCOC(=O)CCC(=O)OCCc1ccc(OC(=O)[C@H]2CC[C@H](C(=O)Oc3cc(OCC)c(OC(=O)[C@H]4CC[C@H](C(=O)Oc5ccc(CCOC(=O)CCC(=O)OCCOC(=O)C=C)cc5)CC4)c4c3SC(=C(C#N)C#N)S4)CC2)cc1 [IV-10] |  | 
13 | 190 °C | 35 wt % | 20 wt % | 134 °C |  | C=CC(=O)OCCOC(=O)CCC(=O)OCCc1ccc(OC(=O)[C@H]2CC[C@H](C(=O)Oc3ccc(OC(=O)[C@H]4CC[C@H](C(=O)Oc5ccc(CCOC(=O)CCC(=O)OCCOC(=O)C=C)cc5)CC4)c(/C=N/Nc4nc5ccccc5s4)c3)CC2)cc1 [VI-1] | A (decrease in melting point or Sm-N (smectic-nematic) transition temperature is 20 °C or greater) | A (solubility improved twofold or greater in plural solvents or a single solvent)
14 | 145 °C | 25 wt % | 15 wt % | 123 °C | 137 °C | C=CC(=O)OCCOC(=O)CCC(=O)OCCc1ccc(OC(=O)[C@H]2CC[C@H](C(=O)Oc3ccc(OC(=O)[C@H]4CC[C@H](C(=O)Oc5ccc(CCOC(=O)CCC(=O)OCCOC(=O)C=C)cc5)CC4)c4sc(=S)sc34)CC2)cc1 [VI-7] | A (decrease in melting point or Sm-N (smectic-nematic) transition temperature is 20 °C or greater) | B (solubility was the same or improved up to twofold in plural solvents or a single solvent)
